Results on one molecule are retold here after paper PMC3440348, “Identification of Novel Human Dipeptidyl Peptidase-IV Inhibitors of Natural Origin (Part I): Virtual Screening and Activity Assays” (PLoS ONE, 2012).

pIC50: −log10 of the molar value.

The assay deals with T1, DPP-IV (dipeptidyl peptidase-IV) (Homo sapiens, UniProt P27487).
T1 construct: gene DPP4; commercial recombinant human DPP-IV
Description: fluorimetric DPP-IV inhibition assay (H-Gly-Pro-AMC), dose-response. It is filed as biochemical.

T1 sequence (P27487 39-766): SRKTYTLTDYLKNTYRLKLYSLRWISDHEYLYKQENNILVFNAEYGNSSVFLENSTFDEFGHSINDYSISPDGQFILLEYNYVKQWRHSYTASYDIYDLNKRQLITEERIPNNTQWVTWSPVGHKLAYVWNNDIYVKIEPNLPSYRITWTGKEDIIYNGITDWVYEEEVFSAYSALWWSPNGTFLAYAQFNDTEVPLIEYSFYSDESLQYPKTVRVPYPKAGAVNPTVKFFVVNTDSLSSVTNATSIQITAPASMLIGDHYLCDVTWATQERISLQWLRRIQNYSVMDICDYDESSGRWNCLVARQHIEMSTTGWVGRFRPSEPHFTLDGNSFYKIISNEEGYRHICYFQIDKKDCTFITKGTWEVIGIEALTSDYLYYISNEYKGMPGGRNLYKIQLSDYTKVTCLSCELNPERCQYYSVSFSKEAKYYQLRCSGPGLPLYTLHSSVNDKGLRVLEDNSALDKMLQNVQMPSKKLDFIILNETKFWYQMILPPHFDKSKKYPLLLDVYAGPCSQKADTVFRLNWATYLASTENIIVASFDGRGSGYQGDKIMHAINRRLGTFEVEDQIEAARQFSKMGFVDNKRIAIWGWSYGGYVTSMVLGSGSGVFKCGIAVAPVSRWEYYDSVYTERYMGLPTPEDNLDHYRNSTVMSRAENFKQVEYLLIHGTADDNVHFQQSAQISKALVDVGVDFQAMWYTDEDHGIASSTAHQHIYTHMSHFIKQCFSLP

Usually pIC50 stands for the negative decadic logarithm of the IC50, by convention in mol/L. Higher therefore signals a small IC50. In turn, `CCCCN(C)Cc1c(O)ccc2c(-c3cc4ccccc4oc3=O)cc(=O)oc12` [C5, ZINC02132035] gave a pIC50 of 4.21.
